Data published in patent US11311568B2, “Therapeutic pharmaceutical composition for cancer including miRNA” (Purmx Therapeutics, Inc., priority 2017, dated 2022).

Legend:
[1] = system: breast cancer stem cell strain (MDA-MB231-luc-D3H2LN cells); assay: Annexin V apoptosis marker expression by FACS; assay type: cell-based; details: six days after transfection, FIG. 10 bottom
Experimental: Moreover, by the protocol below, the expression of apoptosis marker Annexin V in breast cancer cells transfected with miR-3140-3p was analyzed.
1: Transfection of miR-3140-3p was performed with a protocol similar to that described above.
2: Six days after transfection, cells were recovered together with the supernatant.
3: Samples for FACS were prepared according to the protocol of the Annexin V assay kit.
4: Cells stained by Annexin V-FITC were stained with an antibody against cancer stem cell marker CD44 (eBioScience).
5: The prepared samples were analyzed with Cell Sorter (SONY).

[2] = system: malignant pleural mesothelioma cells EHMES-10; assay: Antitumor effect in vivo, subcutaneous transplantation of EHMES-10 cells; design: species or system SCID mouse; details: SCID mice, EHMES-10 subcutaneous, 13 administrations
Experimental: Malignant pleural mesothelioma cells EHMES-10 cells were used.
1: The cells on the dish were washed twice with PBS (-).
2: The cells were detached with trypsin.
3: This was suspended in a medium, and cells were counted.
4: Centrifugation at a condition of 1000 rpm for 3 min was performed to pellet down.
5: The cells were resuspended in PBS (-) in order to obtain 2.0×10^7 cells/mL.
Six weeks-old C-B-17/Icr-scid/scid Jcl (SCID mouse) were used as mice. SCID mice were subcutaneously administered 100 μL of the prepared cell suspension, and the cells were allowed to settle.
Negative control which is the control sequence and miR-3140-3p which is the miRNA of the present invention were employed. A6K (from 3D Matrix) was employed as the nucleic acid delivery reagent. The administration of miRNA to mice was carried out with the following protocol.
1: 100 μM of the nucleic acid (miRNA) was diluted with 10% saline and sterilized water in order to obtain 71.4 μM.
2: 1% A6K solution was sonicated for 5 minutes before use.
3: The diluted nucleic acid and the 1% A6K solution were mixed at a proportion of 1:1 to give the administration nucleic acid.
4: SCID mice were subcutaneously administered (tumor site) 50 μL each of the administration nucleic acid.
1: From two days after transplantation, the nucleic acid was administered every one or two days. […]

[3] = system: large intestine cancer cell strain SW620; assay: Cell growth inhibition, cell count after transfection; assay type: cell-based; details: SW620, final concentration 10.0 nM, seven days after transfection, FIG. 12
Experimental: (§1) miR-3140-3p was transfected into large intestine cancer cell strains (SW620, SW480, and HT29), and cell proliferation was observed. Transfection was carried out with the following protocol.
(§2) 1: To a 35 mm dish were added 500 μL of serum free medium (SFM) and 5 μL of RNAiMAX (Invitrogen).
(§3) 2: To the solution from 1 was added 12.5 μL each of miR-Control or miR-3140-3p, miR-22-3p, and miR-34a-5p (stock conc. 2 μM) (final concentration 10.0 nM).
(§4) 3: This was incubated at room temperature for 20 minutes.
(§5) 4: 1.5 mL of a cell suspension diluted to 6.7×10^4 cells/mL was added to the 35 mm dish.
(§6) 5: This was incubated at 37° C. under 5% CO2 condition.
(§7) 6: The cells were counted seven days after transfection.
(§8) Setting the number of control introduction cells as 100%, the survival rate of cells in which miR-3140-3p was introduced was shown in %.

[4] = system: large intestine cancer cell strain HT29; assay: as above; assay type: cell-based; details: HT29, final concentration 10.0 nM, seven days after transfection, FIG. 12
Experimental: as §1, §2, §3, §4, §5, §6, §7, §8

[5] = system: large intestine cancer cell strain SW480; assay: as above; assay type: cell-based; details: SW480, final concentration 10.0 nM, seven days after transfection, FIG. 12
Experimental: as §1, §2, §3, §4, §5, §6, §7, §8

[6] = system: lung cancer cell strain (A549); assay: as above; assay type: cell-based; details: A549, final concentration 10.0 nM, six days after transfection, FIG. 11
Experimental: miR-3140-3p was transfected into lung cancer cell strain (A549), and cell proliferation was observed. […] Transfection was carried out with the following protocol.
as §2
2: To the solution from 1 was added 1 μL each of miR-Control or miR-3140-3p, miR-22-3p, and miR-34a-5p (stock conc. 20 μM) (final concentration 10.0 nM).
as §4, §5, §6
6: The cells were counted six days after transfection.

[7] = system: malignant pleural mesothelioma cell strain EHMES-10; assay: Comparison of antitumor effect with cisplatin in vivo, pleural cavity transplantation; design: species or system mice (C-B-17/Icr-scid/scid Jcl); details: miRNA/A6K in pleural cavity versus cisplatin 6 mg/kg intraperitoneal, EHMES-10 in pleural cavity, FIGS. 30-33
Text: In order to investigate the relative superiority of antitumor effect of miR-3140-3p, the tumor suppression effect of cisplatin which is the first-line drug of malignant pleural mesothelioma and the tumor suppression effect of miR-3140-3p were compared in vivo.
Six weeks-old male mice (C-B-17/Icr-scid/scid Jcl) were used as mice. Malignant pleural mesothelioma cell strain EHMES-10 which expresses the luciferase gene was used as the tumor cell.
The protocol is shown below.
1: Mice were intraperitoneally administered 0.1 mL per 10 g of body weight of a mixed anesthetic drug of medetomidine hydrochloride, midazolam, and butorphanol tartrate.
2: After anesthesia, mouse chest hair was shaved, and an incision was made in the epidermis with scissors.
3: In the mouse pleural cavity 100 μL of tumor cells (3×10^7 cells/mL) was transplanted with a 27 G syringe for insulin.
4: Four days after transplantation, imaging of tumor cells was performed with IVIS Spectrum CT In vivo Imaging System.
5: After imaging, grouping was performed with successfully transplanted mice.
6: Mice were intraperitoneally administered 0.1 mL per 10 g of body weight of a mixed anesthetic drug of medetomidine hydrochloride, midazolam, and butorphanol tartrate to anesthetize the mice. […]

## miR-3140-3p: Mature-miRNA, AGCUUUUGGGAAUUCAGGUAGU (SEQ ID NO. 2) (listed as RNA, chemistry not given here; listed as Homo sapiens)
[1]
  apoptosis marker Annexin V positive: 96.97%
[2]; 33 days after transplantation, FIG. 16
  tumor weight at endpoint compared to the control group: a similar result
[2]; miRNA with A6K at tumor site, imaging at 12, 19, 26, 33 days, FIGS. 14-15
  expansion of the tumor (luciferin imaging) compared to the control group: expansion of the tumor was suppressed
[3]
  cell growth inhibition effect (survival rate of cells, control = 100%): extremely high cell growth inhibition effect
[4]
  cell growth inhibition effect (survival rate of cells, control = 100%): extremely high cell growth inhibition effect
[5]
  cell growth inhibition effect (survival rate of cells, control = 100%): extremely high cell growth inhibition effect
[6]
  cell growth inhibition effect (cell count): extremely high cell growth inhibition effect
[7]
  antitumor effect (tumor suppression, survival rates) compared with cisplatin: equivalent or higher compared to cisplatin
